Entries after “also recorded” stand apart in the source; their conditions may differ. Where two headings read alike, the source gives them in different places.
Tests used:
[1] = test system: pain threshold of brewer's yeast inflamed rat hind foot; assay: Randall and Sellitto's test (analgesic activity); assay type: in vivo; settings: for change in vivo at 25 mg/kg: 25 mg/kg oral; for change in vivo at 25 mg/kg / change in vivo at 50 mg/kg / change in vivo at 100 mg/kg: read-out: percentage increase in the mean pain threshold; for change in vivo at 50 mg/kg: 50 mg/kg oral; for change in vivo at 100 mg/kg: 100 mg/kg oral; for ED50: po, analgesia, read-out: 50% active dose
Summary of the method: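 Rats had 0.1 ml 20% brewer's yeast suspension injected under the hind-foot plantar aponeurosis; compounds dosed orally by stomach tube 1 h before yeast. Pain threshold was the pressure eliciting foot withdrawal, read at the 4–6 h plateau; result is % increase in mean threshold versus untreated controls, 10 rats per group.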

[2] = test system: foreign-body (sponge) granuloma in rats; assay: Experimental granuloma induced by foreign body, histological study; assay type: in vivo, Wistar rats; settings: for histological study of the granuloma: 8 days, Table XI; for histological study of the granuloma (inflammatory connective / granulation tissue): second experiment, day 8, Table XIa
[3] = test system: rat hind foot carragheenin-induced oedema; assay: Carragheenin-induced oedema test; assay type: in vivo; settings: 3 h, read-out: percentage inhibition of the inflammation; for change in vivo at 25 mg/kg: 25 mg/kg oral; for change in vivo at 50 mg/kg: 50 mg/kg oral; for change in vivo at 100 mg/kg: 100 mg/kg oral
[4] = test system: foreign-body (sponge) granuloma in rats; assay: Experimental granuloma induced by foreign body, weight of the granulomas; assay type: in vivo, Wistar rats; settings: Rattus norvegicus, po, 240 h, 10 days after implantation, Table XIb, read-out: decrease in the weight of the granulomas
Protocol: This test consists in studying the subacute cellular phase which is developed in the 8 days which follow the implantation of a foreign body, a sponge of non-resorbable plastic, in the dorsal subcutaneous connective tissue in rats.
The animals used are Wistar rats weighing 120-140 g and of the same origin, maintained under the same conditions of housing throughout the treatment (8 days).
The compounds of the invention are administered orally, in a gum suspension, in the morning in a fasted state, using an oesophageal tube.
In this experiment, on the one hand a histological study of the granulomas is performed by sampling on day 8 (results recorded in Table XIa), and on the other hand a study of the weight of the granulomas was performed 10 days after the implantation (results recorded in Table XIb).

[5] = test system: rat hind foot kaolin-induced arthritis; assay: Kaolin-induced arthritis test, second experiment, acute phase (volume of the foot at the 8th hour); assay type: in vivo; settings: po, 8 h, Table IXa; for change in vivo at 25 mg/kg / change in vivo at 50 mg/kg / change in vivo at 100 mg/kg: 8th hour, read-out: percentage significant decrease in the volume of the treated foot; for ED50: foot volume, read-out: 50% active dose
Protocol: (§1) The […] of 0.05 ml of a sterile 10% strength suspension of kaolin into the metatarsal flexor sheath of the hind foot of a rat initially induces an oedematous reaction. An inflammatory arthritis then forms.
The early oedematous reaction appears from the first hour, and reaches its maximum between the fourth hour and the sixth hour. This is the manifestation of interest. The assessment of the volume of the foot enables the action of substances on the oedematous reaction to be studied. The measurements are carried out using a Giono and Chevilard plethysmometer.
(§2) The test products are administered orally (stomach tube) one hour before the injection of the kaolin.
(§3) In a second experiment, a more elaborate study was performed in order to ascertain the effect of the products, on the one hand on the acute phase of the inflammatory reaction (measured by the volume of the foot at the 8th hour), and on the other hand on the chronic phase (activity measured by the weight of the foot at the 12th hour).
As in the previous experiment, ketoprofen was used as the comparative product:
The results are expressed as a percentage significant decrease in the volume of the treated foot compared with the controls.

[6] = test system: rat hind foot kaolin-induced arthritis; assay: Kaolin-induced arthritis test, second experiment, chronic phase (weight of the foot at the 12th hour); assay type: in vivo; settings: po, 12 h, Table IXb; for change in vivo at 25 mg/kg / change in vivo at 50 mg/kg / change in vivo at 100 mg/kg: 12th hour, read-out: percentage significant decrease in the weight of the treated foot; for ED50: foot weight, read-out: 50% active dose
Protocol: as §1, §2, §3
As in the previous experiment, ketoprofen was used as the comparative product: […]

[7] = test system: biosynthesis of leukotrienes C4 (LTC4), human polymorphonuclear leukocytes; assay: LTC4 production in human polymorphonuclear leukocytes; assay type: cell-based; settings: Leukocyte, 0.25 h, ionophore A 23187 5 μM, 15 min, 37° C., read-out: IC50, inhibition of the production of LTC4
Protocol: Human polymorphonuclear Leukocytes are stimulated by calcium ionophore A 23187 (Calbiochem, 5 μM), in the presence or absence of the test products.
After 15 minutes' incubation at 37° C., assay of the leukotrienes C4 (LTC4) is performed radioimmunologically.
The results are expressed as IC50, the concentration producing 50% inhibition of the production of LTC4, by comparison with a control suspension which has not been incubated in the presence of the test products.

SMILES	change in vivo at 25 mg/kg ([1]; second experiment, Table XIIa)	change in vivo at 50 mg/kg ([1]; second experiment, Table XIIa)	change in vivo at 100 mg/kg ([1]; second experiment, Table XIIa)	ED50 ([1]; second experiment, Table XIIa)	histological study of the granuloma (inflammatory connective / granulation tissue) [2]	change in vivo at 25 mg/kg [4]	change in vivo at 50 mg/kg [4]	change in vivo at 100 mg/kg [4]	change in vivo at 25 mg/kg [5]	change in vivo at 50 mg/kg [5]	change in vivo at 100 mg/kg [5]	ED50 [5]	change in vivo at 25 mg/kg [6]	change in vivo at 50 mg/kg [6]	change in vivo at 100 mg/kg [6]	ED50 [6]	IC50 [7]	change in vivo at 25 mg/kg ([3]; second experiment, Table Xa)	change in vivo at 50 mg/kg ([3]; second experiment, Table Xa)	change in vivo at 100 mg/kg ([3]; second experiment, Table Xa)	also measured
O=C(O)CCCCCCCCCCNS(=O)(=O)c1ccc(Cl)cc1C(=O)c1ccccc1 [Compound 1572, 11-(2-benzoyl-4-chlorobenzenesulphonamido)undecanoic acid]	–	–	–	–	–	–	–	–	–	–	–	–	–	–	–	–	–	–	–	–	change in vivo at 25 mg/kg ([1]; first experiment, Table XII): 18%; change in vivo at 50 mg/kg ([1]; first experiment, Table XII): 30%; change in vivo at 100 mg/kg ([1]; first experiment, Table XII): 55%; histological study of the granuloma ([2]; 50 mg/kg oral): anti-inflammatory activity is exhibited; histological study of the granuloma ([2]; 100 mg/kg oral): distinct; change in vivo at 25 mg/kg ([3]; first experiment, Table X): -18%; change in vivo at 50 mg/kg ([3]; first experiment, Table X): -25%; change in vivo at 100 mg/kg ([3]; first experiment, Table X): -49%
O=C(O)CCCCCCCCCCNS(=O)(=O)c1ccc(Cl)cc1C(=O)c1ccccc1Cl [Compound 1574, 11-[2-(2-chlorobenzoyl)-4-chlorobenzenesulphonamido]undecanoic acid]	45%	50%	50%	50 mg/kg	very distinct rarefaction	-48%	-50%	-55%	-60 ± 6%	-65 ± 6%	-68 ± 5%	25 mg/kg	-58 ± 5%	-60 ± 5%	-60 ± 5%	25 mg/kg	3000 nM	-40%	-43%	-45%	–
O=C(O)CCCCCCCCCCCNS(=O)(=O)c1ccc(Cl)c(C(=O)c2ccccc2)c1 [Compound 1736, 12-(3-benzoyl-4-chlorobenzenesulphonamido)dodecanoic acid]	52%	58%	60%	25 mg/kg	Very distinct slowing in the formation	-48%	-52%	-55%	–	-50 ± 5%	-55 ± 5%	50 mg/kg	-45 ± 5%	-55 ± 5%	-58 ± 5%	50 mg/kg	3000 nM	-45%	-48%	-55%	–
O=C(O)CCCCCCCCCCNS(=O)(=O)c1ccc(Cl)cc1C(O)c1ccccc1Cl (centres unmarked) [Compound 1796]	50%	55%	58%	25 mg/kg	only slightly inflammatory	-50%	-55%	-60%	-50 ± 5%	-55 ± 5%	-60 ± 5%	25 mg/kg	-50 ± 5%	-52 ± 5%	-58 ± 5%	25 mg/kg	1700 nM	-45%	-48%	-55%	–
O=C(O)CCCCCCCCCCNS(=O)(=O)c1ccc(Cl)cc1Cc1ccccc1Cl [Compound 1797]	50%	55%	58%	–	Granuloma poorly developed; also recorded: slightly inflammatory	-50%	-55%	-60%	-50 ± 5%	-55 ± 5%	-60 ± 5%	25 mg/kg	-50 ± 5%	-58 ± 5%	-60 ± 5%	25 mg/kg	1000 nM	-45%	-48%	-55%	–

From patent US4980349A, “Sulphonamides derived from diarylmethanes, the processes for preparing them and pharmaceutical compositions containing them” (SANOFI, priority 1986, dated 1990)
